The results in this text go back to US9586931B2 (Merck Sharp & Dohme Corp., priority 2012, dated 2017).

This assay addresses T1, recombinant human GST-Syk (Homo sapiens, UniProt P43405).
T1 construct: purchased Carna Biosciences 08-176
In words: Homogeneous Time-Resolved Fluorescence (HTRF) assay for the recombinant human Syk enzyme. Particulars: recombinant human GST-Syk 5 pM, ATP 25 μM, 10-dose titration 10 μM to 0.508 nM; read-out: rhSYK Activity IC50. Type of assay: biochemical. The method in brief:
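GST-hSyk fusion protein phosphorylated a peptide for 45 min at room temperature. The reaction was quenched with 2 nM Eu-anti-phosphotyrosine antibody and 70 nM SA-APC in 15 mM Tris pH 7.5, 40 mM EDTA, 0.01% Tween 20. The HTRF signal was read after 30 min.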
Usually IC50 stands for the midpoint of a concentration-inhibition curve. Regarding `Cc1cc(Nc2cc(C(F)(F)F)ccn2)nc(-c2cn(C3CCCCC(O)C3O)nn2)c1` (single isomer, unassigned) [Example 10.5, 3-[4-(4-methyl-6-{[4-(trifluoromethyl)pyridin-2-yl]amino}pyridin-2-yl)-1H-1,2,3-triazol-1-yl]cycloheptane-1,2-diol], the IC50 is 2.6 nM.
To `Cc1cc(Nc2cc(C(F)(F)F)ccn2)nc(-c2cn([C@H](C)C(=O)O)nn2)c1` [Example 5.29, (2R)-2-[4-(4-methyl-6-{[4-(trifluoromethyl)pyridin-2-yl]amino}pyridin-2-yl)-1H-1,2,3-triazol-1-yl]propanoic acid] belongs 166 nM; to `Cc1cc(Nc2nccc(C(F)F)n2)cc(-c2cn(CC3CNCCO3)nn2)c1` (single isomer, unassigned) [Example 22.2, 4-(difluoromethyl)-N-(3-methyl-5-(1-(morpholin-2-ylmethyl)-1H-1,2,3-triazol-4-yl)phenyl) pyrimidin-2-amine], 1.7 nM; to `Cc1cc(Nc2cc(C)c(Cl)cn2)nc(-c2cn(CC(C)(O)C(C)(C)O)nn2)c1` (stereo not drawn) [Example 21.24, 1-(4-{6-[(5-chloro-4-methylpyridin-2-yl)amino]-4-methylpyridin-2-yl}-1H-1,2,3-triazol-1-yl)-2,3-dimethylbutane-2,3-diol], 31.9 nM.
Consider `Cc1cc(Nc2cc(C(F)(F)F)ccn2)nc(-c2cn(C(C)C(=O)N3CCN(Cc4ccccc4)C(c4ccccc4)C3)nn2)c1` (stereo not drawn) [Example 1.50, 6-{1-[2-(4-benzyl-3-phenylpiperazin-1-yl)-1-methyl-2-oxoethyl]-1H-1,2,3-triazol-4-yl}-4-methyl-N-[4-(trifluoromethyl)pyridin-2-yl]pyridin-2-amine], for which the IC50 came to 570 nM.
On to `C/C=C/Cn1cc(-c2cc(C)cc(Nc3cc(C(F)(F)F)ccn3)n2)nn1` [Example 5.38, 6-{1-[(2E)-but-2-en-1-yl]-1H-1,2,3-triazol-4-yl}-4-methyl-N-[4-(trifluoromethyl)pyridin-2-yl]pyridin-2-amine], for which the IC50 is 17.8 nM.
With `Cc1cc(Nc2cc(C(F)(F)F)ccn2)nc(-c2cn(C/C=C/C(N)=O)nn2)c1` [Example 1.26, (2E)-4-[4-(4-methyl-6-{[4-(trifluoromethyl)pyridin-2-yl]amino}pyridin-2-yl)-1H-1,2,3-triazol-1-yl]but-2-enamide], the IC50 was found to be 1110 nM.
For the compound `Cc1cc(Nc2cc(C(F)(F)F)ccn2)nc(-c2cn(C[C@@H](O)C(=O)O)nn2)c1` [Example 4.20, (2R)-2-hydroxy-3-[4-(4-methyl-6-{[4-(trifluoromethyl)pyridin-2-yl]amino}pyridin-2-yl)-1H-1,2,3-triazol-1-yl]propanoic acid], the IC50 was determined as 17 nM.
For the compound `Cc1cc(Nc2cc(C(C)O)ccn2)nc(-c2cn(C(C)c3ccc(C(=O)O)cc3)nn2)c1` (stereo not drawn) [Example 2.3, 4-{1-[4-(6-{[4-(1-hydroxyethyl)pyridin-2-yl]amino}-4-methylpyridin-2-yl)-1H-1,2,3-triazol-1-yl]ethyl}benzoic acid], the half-maximal inhibitory concentration (IC50) was 21.1 nM.
To `COCc1cc(Nc2nccc(C(F)(F)F)n2)cc(-c2cn(C[C@H](O)CO)nn2)c1` [Example 5.23, (2S)-3-{4-[3-(methoxymethyl)-5-{[4-(trifluoromethyl)pyrimidin-2-yl]amino}phenyl]-1H-1,2,3-triazol-1-yl}propane-1,2-diol] belongs 64.7 nM; to `Cc1cc(Nc2cc(C(F)(F)F)ccn2)nc(-c2cn(C3CN(C(=O)CCC(N)=O)CC3O)nn2)c1` (stereo not drawn) [Example 13.5, 4-{-3-hydroxy-4-[4-(4-methyl-6-{[4-(trifluoromethyl)pyridin-2-yl]amino}pyridin-2-yl)-1H-1,2,3-triazol-1-yl]pyrrolidin-1-yl}-4-oxobutanamide], 15 nM; to `Cc1cc(Nc2cc(C(F)(F)F)ccn2)nc(-c2cn(C(C)C(=O)N3CCc4c([nH]c5ccccc45)C3)nn2)c1` (stereo not drawn) [Example 1.31, 4-methyl-6-{1-[1-methyl-2-oxo-2-(1,3,4,9-tetrahydro-2H-beta-carbolin-2-yl)ethyl]-1H-1,2,3-triazol-4-yl}-N-[4-(trifluoromethyl)pyridin-2-yl]pyridin-2-amine], 320 nM.
